Laboratory results: PubChem BioAssay AID1996
≈ marks a conversion by molar mass, not a printed value.

Conditions: buffer; pH 7.4; 200.0 µM

| SMILES | solubility kinetic [µg/mL] |
| --- | --- |
| CC1CCN(CC(O)COC2CC(C)CC(C)(C)C2)CC1.Cl (centres undefined) | 45.5 |
| CN1CCN(CC(=O)Nc2nc3ccccc3s2)CC1.O=CO | 50.4 |
| Cc1ccc2c(c1)c1c(n2CC(O)CN2CCCCC2C)CCCC1 (centres undefined) | 29.8 (≈ 87.5 µM) |
| CSc1ccccc1NC(=O)CSc1nncs1 | > 44.6 |
| CCCN(CCC)C(=O)Cc1ccc(F)cc1 | 28 (≈ 118 µM) |
| COc1ccc(Cc2c(O)nc(SCC(=O)N3CCOCC3)[nH]c2=O)cc1 | > 58.7 |
| COC(=O)COc1c(/C=C\c2nc(O)c([N+](=O)[O-])c(=O)[nH]2)cccc1OC | > 56.6 |
| CC(C)n1c(C(F)(F)F)nc2cc(C(=O)N3CCOCC3)ccc21 | > 51.2 |
| COc1ccc(CCNC(=O)c2ccc3c(c2)OCO3)cc1 | 2.5 (≈ 8.35 µM) |
| CSCCCNC(=S)Nc1ccc(N2CCOCC2)cc1 | > 48.8 |
| COc1ccc(OC)c(N/C(C)=C/C(=O)c2ccncc2)c1 | 36.9 (≈ 124 µM) |
| CCC(=O)Nc1ccc2nc3c(=O)[nH]c(=S)[nH]c3nc2c1 | > 45.2 |
| COc1ccc(/C(C)=N/NC(=O)CNC(=O)c2ccco2)cc1 | > 47.3 |
| O=Cc1c(NCCN2CCOCC2)c2ccccc2[nH]c1=O | > 45.2 |
| CCOc1ccc(Cl)cc1S(=O)(=O)N1CCC(C(=O)NCc2ccco2)CC1 | 3.6 (≈ 8.43 µM) |
| O=C(O)c1cc(N2C(=O)CCC2=O)ccc1Cl | > 38 |
| N#CCOc1coc(CN2CCN(c3ccccc3)CC2)cc1=O | > 48.8 |
| CC(C)Oc1ccc(C(=O)OC(C)C(=O)NC2CCCCC2C)cc1 (centres undefined) | 4.4 (≈ 12.7 µM) |
| Cn1cnc([N+](=O)[O-])c1SCCO | > 30.5 |
| O=C(O)C(=O)O.c1ccc2c(c1)CCN(C1CCCCC1)C2 | 44 |
| CCCn1c2ccccc2c2cnn(CC(=O)O)c(=O)c21 | > 42.8 |

| SMILES | solubility kinetic [µg/mL] |
| --- | --- |
| CC(Sc1nnc(-c2ccccc2F)n1C1CC1)C(N)=O (centres undefined) | > 46 |
| COc1ccc(N2CC(NC(=O)N(C)CCC#N)CC2=O)cc1 (centres undefined) | 46.7 (≈ 148 µM) |
| COc1ccc(NC(=O)C2CCCN(c3nccc(C)n3)C2)cc1 (centres undefined) | 3.8 (≈ 11.6 µM) |
| CCN(Cc1ccccc1)C(=O)CS(=O)(=O)c1ccccc1 | > 47.6 |
| CN(CC(=O)Nc1ccc(F)c(F)c1F)C(=O)c1ccc(=O)[nH]c1 | > 50.9 |
| O=C(COC(=O)CC1CC2CCC1C2)NCc1ccc(Cl)cc1 (centres undefined) | 6.2 (≈ 18.5 µM) |
| CCCN(CC1CC1)C(=O)COC(=O)c1ccc(C)cc1O | > 45.8 |
| CNc1nc(-c2cccs2)cc(C(F)(F)F)c1C#N | < 0.2 |
| Cc1ccc(S(=O)(=O)N2CCOCC2)cc1C(=O)OCC(=O)NCCc1ccc(F)cc1 | 60.2 (≈ 130 µM) |
| COCCNC(=O)C(NC(=O)C1CCC(C)CC1)C(C)C (centres undefined) | > 44.8 |
| CC1CCC2(CC1)SCC(=O)N2c1ccc(F)cc1 (centres undefined) | 39.5 (≈ 141 µM) |
| O=C(/C=C/c1cccc(F)c1)OCC(=O)N1CCCC1 | > 41.6 |
| Cn1cccc1C1C(C#N)=C(N)OC2=C1C(=O)CCC2 (centres undefined) | > 40.4 |
| O=C(COC(=O)c1cccnc1Cl)NC(=O)NC1CCCCC1 | > 51 |
| O=C(NNC(=S)Nc1ccc(F)c(Cl)c1)C1CC1 | > 43.2 |
| COc1ccc2cc[nH]c2c1 | 15.3 (≈ 104 µM) |
| N#C/C(=C\c1ccccc1)C(=O)N1CCC(C(N)=O)CC1 | 40.1 (≈ 142 µM) |
| C=CCNc1cc(C)oc(=O)c1C(=O)CC | > 33.2 |
| CCOc1ccc2nc(S(N)(=O)=O)sc2c1 | > 38.7 |
| CCN(CC)C(=O)c1c(C)[nH]c(=S)c(C#N)c1-c1ccco1 | > 47.3 |
| O=C(NCCN1CCOCC1)NC1(C(F)(F)F)Oc2ccc(Cl)cc2O1 (centres undefined) | > 59.4 |

| SMILES | solubility kinetic [µg/mL] |
| --- | --- |
| COc1ccc(C(=O)Nc2ccc(NC(=O)C3CC3)nc2)cc1 | 1.7 (≈ 5.46 µM) |
| O=[N+]([O-])c1ccc(N2CCSCC2)cc1O | 4.1 (≈ 17.1 µM) |
| O=C(COC(=O)c1ccc(F)cc1Cl)NC1CCCCCCC1 | 21.2 (≈ 62 µM) |
| O=C1C=C(NCCOC23CC4CC(CC(C4)C2)C3)C2(CCCCC2)O1 | 4 (≈ 11.6 µM) |
| CC(C)Oc1cccc(C(=O)C2CCCN(C3CCOCC3)C2)c1 (centres undefined) | 31 (≈ 93.5 µM) |
| CC1=C(C)CC(C(=O)NCCCN2CCCC2=O)C(C(=O)O)C1 (centres undefined) | > 48.4 |
| COCC1CCCN(Cc2nc(Cc3ccccc3)no2)C1 (centres undefined) | 44.7 (≈ 148 µM) |
| CCN(CC(=O)NC(=O)NC1CCCC1)Cc1ccccc1 | > 45.5 |
| Cc1ccccc1CC(=O)NC1CCCCCC1 | 11.1 (≈ 45.2 µM) |
| COc1ccc(OCC(O)CNS(=O)(=O)c2cccc(Cl)c2)cc1 (centres undefined) | 51.4 (≈ 138 µM) |
| COc1ccc(OCC(=O)OCC(=O)NC2CC2)cc1 | > 41.9 |
| CC1CCN(CCn2c(=S)[nH]c3cc4c(cc3c2=O)OCO4)CC1 | 29.4 (≈ 84.6 µM) |
| CCCC(=O)Nc1nc(C)c(C(C)=O)s1 | > 33.9 |
| O=c1c2ccccc2[nH]c(=S)n1-c1ccc2c(c1)OCCO2 | 4.5 (≈ 14.4 µM) |
| Cc1ccc(NC(=O)N2CCCC2C(=O)NCC2CCCO2)cc1 (centres undefined) | > 49.7 |
| O=S(=O)(Nc1ccon1)c1ccc(Br)s1 | 31.3 (≈ 101 µM) |
| COc1cc(OC)c(NC(=O)N2CCOCC2)cc1Cl | > 45.1 |
| CCOc1ccc(NC(=O)COC(=O)c2ccc(S(=O)(=O)N3CCOCC3)cc2)cc1 | 25.9 (≈ 57.7 µM) |
| COc1cccc(Oc2ccc(S(=O)(=O)N3CCOCC3)cc2[N+](=O)[O-])c1 | 11 (≈ 27.9 µM) |
| Cc1ccc(CN(CCO)CCO)cc1 | 29.4 (≈ 140 µM) |
| CC1CN(C2=CC(=O)CCC2)CC(C)O1 (centres undefined) | > 31.4 |

Second part, the molecule after the results:

| solubility kinetic [µg/mL] | SMILES |
| --- | --- |
| 2.5 (≈ 10.6 µM) | O=c1[nH]c(Cc2ccccc2)nc2ccccc12 |
| 1.1 (≈ 3.87 µM) | Cc1cc(C)cc(Nc2ccc3nonc3c2[N+](=O)[O-])c1 |
| < 0.3 | CCOC(=O)c1sc(Nc2cccc(Cl)c2)nc1C |
| 16.7 (≈ 59.6 µM) | O=C(Nc1ccccc1C(=O)NC1CC1)c1ccccc1 |
| 1.7 (≈ 6.04 µM) | CC(C)(C)NC(=O)C1c2ccccc2Oc2ccccc21 |
| > 49.7 | Cc1cc(C)nc(SCC(=O)OCC(=O)Nc2ccccc2)n1 |
| 0.5 (≈ 1.41 µM) | COc1cc2c(cc1OC)/C(=C/C(=O)c1cccc([N+](=O)[O-])c1)NCC2 |
| 8.3 (≈ 29.5 µM) | COc1cccc(CC(=O)Nc2ccc3c(c2)CCC3)c1 |
| 1.4 (≈ 5.15 µM) | O=C(Nc1ccon1)Nc1cc(Cl)ccc1Cl |
| 27.5 (≈ 122 µM) | CNC(=O)c1cc2c(cn1)[nH]c1ccccc12 |
| 43 (≈ 104 µM) | COc1ccc(OC)c(N(CC(=O)Nc2cccc3ccccc23)S(C)(=O)=O)c1 |
| 37.4 (≈ 143 µM) | COC(=O)Cc1csc(NCc2ccccc2)n1 |
| 0.8 (≈ 2.39 µM) | Cc1cc(C)cc(NC(=O)NCc2c(-c3ccccc3)noc2C)c1 |
| > 41.9 | CCn1cnc2cc(NC(=O)c3ccc(C)cc3)ccc21 |
| 0.5 (≈ 1.41 µM) | CCCOc1ccc(NC(=O)CCC(=O)NC(C)c2ccccc2)cc1 (centres undefined) |
| 39.4 (≈ 112 µM) | CC(=O)c1ccc(NC(=O)N2CCN(c3ccc(C)cc3)C(C)C2)cc1 (centres undefined) |
| 2.1 (≈ 6.7 µM) | COc1ccc2ccccc2c1C1NC(=O)NC(C)=C1[N+](=O)[O-] (centres undefined) |
| 18.9 (≈ 53.3 µM) | CC1Oc2ccccc2N(CC(=O)NCc2ccc3c(c2)OCO3)C1=O (centres undefined) |
| 18 (≈ 60.5 µM) | COc1ccc(OC)c(NC(=O)C2CC2c2ccccc2)c1 (centres undefined) |

| solubility kinetic [µg/mL] | SMILES |
| --- | --- |
| > 36.2 | Cc1cc(N2C(=O)c3ccccc3C2=O)n(C)n1 |
| 63.9 (≈ 149 µM) | CC1CCN(C(=O)c2ccccc2NC(=O)c2cccc(S(=O)(=O)N(C)C)c2)CC1 |
| > 57.2 | COc1ccc(S(=O)(=O)N[C@@H](CSCc2ccccc2)C(=O)O)cc1 |
| > 59.6 | O=C(CN1C(=O)NC2(CCOc3ccccc32)C1=O)NCCc1ccc(F)cc1 (centres undefined) |
| 0.9 (≈ 2.76 µM) | O=C(Nc1nc(-c2cccnc2)cs1)c1cccc([N+](=O)[O-])c1 |
| 3.2 (≈ 9.18 µM) | CCOC(=O)/C(=C/c1cn(C)c2ccccc12)NC(=O)c1ccccc1 |
| < 0.3 | O=C(NCCc1ccccc1)C(=O)Nc1ccc2c(c1)OCCO2 |
| 46.3 (≈ 148 µM) | Cn1cc(-c2ccccc2C(N)=O)c(=O)c2cc(Cl)ccc21 |
| > 52.1 | CCNS(=O)(=O)c1ccc(CCC(=O)NCc2ccccn2)cc1 |
| > 48.5 | CCn1cc(S(=O)(=O)Nc2cc(C(=O)OC)ccc2C)cn1 |
| < 0.2 | O=C(Nc1nc2ccccc2s1)c1ccc([N+](=O)[O-])o1 |
| 6.2 (≈ 19.5 µM) | Cc1ccsc1C(=O)OCC(=O)NCCCc1ccccc1 |
| > 38.9 | Cc1ccc(NC(=O)CNC(=O)c2ccco2)nc1 |
| 1 (≈ 2.99 µM) | O=C(Nc1cccc(C(=O)Nc2ccccc2F)c1)c1ccccc1 |
| 0.4 (≈ 1.3 µM) | Cn1c(SCc2cccc(C#N)c2)nc2ccccc2c1=O |
| > 55.2 | Cc1onc(-c2c(Cl)cccc2Cl)c1C(=O)NN1CCCCCC1 |
| 0.4 (≈ 1.08 µM) | Nc1ncc(-c2ccccc2)c(-c2ccc(OCc3ccccc3)cc2O)n1 |
| 19.3 (≈ 60.4 µM) | CCc1noc(C)c1C(=O)Nc1nc(-c2cccs2)cs1 |
| > 39.9 | COc1ccc(Cc2nnc(-c3ccccc3)o2)cc1 |

| solubility kinetic [µg/mL] | SMILES |
| --- | --- |
| > 45 | COc1ccccc1CNC(=O)COC(=O)c1ccccn1 |
| > 46.4 | CC(=O)Nc1cccc(NS(=O)(=O)c2c(C)noc2C)c1 |
| 9.7 (≈ 30.3 µM) | COc1ccc(NC(=O)c2cccc(-c3ccc(O)cc3)c2)cn1 |
| 3.1 (≈ 8.83 µM) | O=C1CN(C(=O)COc2ccc(Cl)cc2Cl)c2ccccc2N1 |
| 5 (≈ 15.8 µM) | Cc1ccc(NS(=O)(=O)c2ccc3[nH]c(=O)[nH]c3c2)c(C)c1 |
| > 36 | CC(C)c1ccc(C(=O)Nc2cccnc2)cc1 |
| 1.4 (≈ 4.25 µM) | COc1ccc2nc(NC(=O)Nc3ccccc3OC)sc2c1 |
| > 44.3 | O=C(Nc1ccncc1)C1CC(=O)N(Cc2ccccc2)C1 (centres undefined) |
| 1.5 (≈ 5.33 µM) | COC(=O)c1ccc(N/C=C/C(=O)c2ccccc2)cc1 |
| 6.9 (≈ 22.2 µM) | CNS(=O)(=O)c1ccc(NC(=O)c2csc(C)c2)cc1 |
| > 47.5 | O=C(O)CCSc1ncnc2sc(-c3ccccc3)cc12 |
| < 0.4 | Cc1ccc(O)c(NC(=O)c2ccc3c(c2)C(=O)N(CC(C)C)C3=O)c1 |
| > 62.3 | O=C(O)c1ccc(CNC(=O)c2ccc3c(c2)C(=O)N(Cc2cccnc2)C3=O)cc1 |
| 0.4 (≈ 1.5 µM) | Cc1cccc(CSc2ncnc3ccccc23)c1 |
| 0.2 (≈ 0.651 µM) | O=[N+]([O-])c1cnc(Nc2ccccc2)nc1Nc1ccccc1 |
| 48.8 (≈ 145 µM) | COc1ccc(/C=C/C(=O)O)cc1S(=O)(=O)NCc1ccco1 |
| 2.1 (≈ 6.17 µM) | COc1ccc(C)cc1NC(=O)CN1C(=O)COc2ccc(C)cc21 |
| 37.9 (≈ 140 µM) | Cc1[nH]c2ccccc2c1C(C[N+](=O)[O-])c1ccco1 (centres undefined) |
